Read-outs that look alike come from different tables or passages of the source.
Assays:
[1] = tested on: CF-1 mouse; assay: Clinical observations / behavioral signs in AC-MES studies; format: in vivo
Description: Any qualitative changes from normal behavior were recorded.
Five oral (PO) doses of Compound A were each tested in the AC-MES model. Thirty minutes after administration of Compound A at 1 mg/kg (n=8), 3 mg/kg (n=8), 5 mg/kg (n=16), 7.5 mg/kg (n=7), and 10 mg/kg (n=17) via oral gavage to male CF-1 mice (body weights 28.2 to 43.8 g), the mice underwent a 60 Hz corneal electrical stimulus (0.2 seconds duration, 40 mA). This stimulus elicited a tonic hindlimb extension in all vehicle-dosed animals. […] An observational neurological assessment (qualitative test) was also conducted at the time of testing as a tolerability screen. Terminal plasma and brain samples were collected from all animals to obtain the levels of Compound A concentration, and to understand the relationship between efficacy and drug concentration.
(§1) The Blinding and Randomization, Clinical Observations, AC-MES Assay, Sample Collection and Preparation, Plasma and Brain Samples Analysis, and Bioanalysis Procedures in Example 4 were identical to those used in Example 2.

[2] = Terminal plasma and brain concentrations in AC-MES studies (UHPLC-MS/MS); format: in vivo, mouse
Description: Sample Collection and Preparation: Mice were anesthetized by isoflurane inhalation (according to SOP TECH-018) until they reached a surgical plane of anesthesia. Then a syringe (1 mL syringe with a 22 gauge needle) was inserted under the sternum into the heart (according to SOP TECH-031). Approximately 0.5 mL of blood was collected, deposited into a K2EDTA tube, and stored on ice. Animals were then euthanized by cervical dislocation. Brains were removed, placed into a pre-weighed vial, and snap frozen on dry ice. At the end of the sample collection, blood was centrifuged at 4000 rpm for 10 minutes at 4° C., and the plasma pipetted into a labeled tube. All samples were stored in a −80° C. freezer until the time of bioanalysis.
Plasma Samples: Extraction of plasma samples was carried out by protein precipitation using acetonitrile. Diluted plasma samples (50 μL) were mixed with 50 μL of internal standard (IS) solution in 1:1 acetonitrile:water (v:v) followed by addition of 200 μL of acetonitrile. Samples were vortexed for 30 seconds, centrifuged at 13,000 rpm for 20 minutes, decanted into a 96-well plate and further centrifuged at 4000 rpm for 20 minutes. The samples were analyzed by ultra-high performance liquid chromatography electrospray ionization tandem mass spectrometry (UHPLC-ESI-MS/MS) as described in the bioanalysis procedure below.
Brain Samples: Prior to extraction, pre-weighed whole brains were homogenized in 1:1 acetonitrile:water (v:v) (2 mL per mouse brain) using an IKA T18 Ultra-Turrax Homogenizer at the setting of 4 for approximately 1 minute. The homogenate was centrifuged at 13,000 rpm for 20 minutes and 50 μL of the supernatant were treated exactly as described in above for plasma samples.
Bioanalysis Procedures: All samples, including plasma and brain homogenate extracts (including calibration standards and quality control (QC) samples prepared in K2EDTA mouse plasma), were extracted by protein precipitation. To each 50 μL aliquot of sample, 50 μL of IS solution (2500 ng/mL of Lacosamide in water:acetonitrile (1:1)) and 50 μL of 6% (v:v) phosphoric acid in water were added, then 200 μL acetonitrile was added. The samples in 1.7 mL tubes were vortex-mixed then centrifuged for 20 minutes at 13,000 rpm. Fifty microliters of the supernatant was mixed with 150 μL of water:acetonitrile (1:1) in a 96 well plate, which was centrifuged post-mixing for 20 minutes at 4000 rpm. The samples were then ready for UHPLC-MS/MS analysis.
Samples were analyzed for Compound A by a research-grade UHPLC-MS/MS method using the conditions listed below.
Samples were analyzed for Lacosamide by a research-grade UHPLC-MS/MS method using the conditions listed below.
At least three QC samples, one at each concentration, had to show back-calculated values within ±20% of their nominal concentrations for the whole sample batch to be valid.
as §1
Sample concentration determination and Data Processing and Analysis in Example 4 was identical to Example 2.

NC(=O)O[C@@H](Cn1ncnn1)c1ccccc1Cl [Cenobamate, reference compound]
Fraction with Behavioral Signs ([1]; Study 4D, Cenobamate 3 mg/kg single oral dose): 0/8
Fraction with Behavioral Signs ([1]; Study 4D, Cenobamate 10 mg/kg single oral dose): 0/8
Fraction with Behavioral Signs ([1]; Study 4D, Cenobamate 30 mg/kg single oral dose): 0/8
Fraction with Behavioral Signs ([1]; Study 4E, Cenobamate 3 mg/kg single oral dose): 0/8
Fraction with Behavioral Signs ([1]; Study 4E, Cenobamate 5 mg/kg single oral dose): 0/8
Fraction with Behavioral Signs ([1]; Study 4E, Cenobamate 7.5 mg/kg single oral dose): 0/8
Fraction with Behavioral Signs ([1]; Study 4F, Cenobamate 5 mg/kg PO alone): 0/8
concentration at 2 h ([2]; CF-1, mouse, in vivo, 3 mg/kg, Study 4D, Cenobamate 3 mg/kg single oral dose, 2 h pre-treatment, CF-1 mice, read-out: Mean Brain): 8.7 µM
concentration at 2 h ([2]; CF-1, mouse, in vivo, 3 mg/kg, Study 4D, Cenobamate 3 mg/kg single oral dose, 2 h pre-treatment, CF-1 mice, read-out: Mean Plasma): 29.6 µM
concentration at 2 h ([2]; CF-1, mouse, in vivo, 3 mg/kg, Study 4E, Cenobamate 3 mg/kg single oral dose, 2 h pre-treatment, CF-1 mice, read-out: Mean Brain): 12.2 µM
concentration at 2 h ([2]; CF-1, mouse, in vivo, 3 mg/kg, Study 4E, Cenobamate 3 mg/kg single oral dose, 2 h pre-treatment, CF-1 mice, read-out: Mean Plasma): 27.7 µM
concentration at 2 h ([2]; CF-1, mouse, in vivo, 5 mg/kg, Study 4E, Cenobamate 5 mg/kg single oral dose, 2 h pre-treatment, CF-1 mice, read-out: Mean Brain): 22.1 µM
concentration at 2 h ([2]; CF-1, mouse, in vivo, 5 mg/kg, Study 4E, Cenobamate 5 mg/kg single oral dose, 2 h pre-treatment, CF-1 mice, read-out: Mean Plasma): 53.6 µM
concentration at 2 h ([2]; CF-1, mouse, in vivo, 5 mg/kg, Study 4F, Cenobamate 5 mg/kg PO, 2 h, alone, read-out: mean plasma concentration): 31.3 µM
concentration at 2 h ([2]; CF-1, mouse, in vivo, 5 mg/kg, Study 4F, Cenobamate 5 mg/kg PO alone, 2 h pre-treatment, CF-1 mice, read-out: Mean Brain): 12 µM
concentration at 2 h ([2]; CF-1, mouse, in vivo, 5 mg/kg, Study 4F, Cenobamate 5 mg/kg PO alone, 2 h pre-treatment, CF-1 mice, read-out: Mean Plasma): 31.3 µM
concentration at 2 h ([2]; CF-1, mouse, in vivo, 7.5 mg/kg, Cenobamate 7.5 mg/kg PO, 2 h, alone, read-out: mean plasma concentration): 78.1 µM
concentration at 2 h ([2]; CF-1, mouse, in vivo, 7.5 mg/kg, Study 4E, Cenobamate 7.5 mg/kg single oral dose, 2 h pre-treatment, CF-1 mice, read-out: Mean Brain): 34.5 µM
concentration at 2 h ([2]; CF-1, mouse, in vivo, 7.5 mg/kg, Study 4E, Cenobamate 7.5 mg/kg single oral dose, 2 h pre-treatment, CF-1 mice, read-out: Mean Plasma): 78.1 µM
concentration at 2 h ([2]; CF-1, mouse, in vivo, 10 mg/kg, Cenobamate 10 mg/kg PO, 2 h, alone, read-out: mean plasma concentration): 87 µM
concentration at 2 h ([2]; CF-1, mouse, in vivo, 10 mg/kg, Study 4D, Cenobamate 10 mg/kg single oral dose, 2 h pre-treatment, CF-1 mice, read-out: Mean Brain): 26.8 µM
concentration at 2 h ([2]; CF-1, mouse, in vivo, 10 mg/kg, Study 4D, Cenobamate 10 mg/kg single oral dose, 2 h pre-treatment, CF-1 mice, read-out: Mean Plasma): 87 µM
concentration at 2 h ([2]; CF-1, mouse, in vivo, Study 4G, analyte Cenobamate, 5 mg/kg + 0.5 mg/kg Compound A, read-out: mean total plasma concentration): 41.1 µM
concentration at 2 h ([2]; CF-1, mouse, in vivo, Study 4G, analyte Cenobamate, 5 mg/kg + 1 mg/kg Compound A, read-out: mean total plasma concentration): 39.7 µM
Kp at 2 h ([2]; CF-1, mouse, in vivo, po, 3 mg/kg, Study 4D, Cenobamate 3 mg/kg single oral dose, read-out: B/P Ratio (brain to plasma ratio)): 0.29
Kp at 2 h ([2]; CF-1, mouse, in vivo, po, 3 mg/kg, Study 4E, Cenobamate 3 mg/kg single oral dose, read-out: B/P Ratio (brain to plasma ratio)): 0.44
Kp at 2 h ([2]; CF-1, mouse, in vivo, po, 5 mg/kg, Study 4E, Cenobamate 5 mg/kg single oral dose, read-out: B/P Ratio (brain to plasma ratio)): 0.41
Kp at 2 h ([2]; CF-1, mouse, in vivo, po, 5 mg/kg, Study 4F, Cenobamate 5 mg/kg PO alone, read-out: B/P Ratio (brain to plasma ratio)): 0.38
Kp at 2 h ([2]; CF-1, mouse, in vivo, po, 7.5 mg/kg, Study 4E, Cenobamate 7.5 mg/kg single oral dose, read-out: B/P Ratio (brain to plasma ratio)): 0.44
Kp at 2 h ([2]; CF-1, mouse, in vivo, po, 10 mg/kg, Study 4D, Cenobamate 10 mg/kg single oral dose, read-out: B/P Ratio (brain to plasma ratio)): 0.31
Kp ([2]; CF-1, mouse, in vivo, po, 30 mg/kg, Study 4D, Cenobamate 30 mg/kg single oral dose, read-out: B/P Ratio (brain to plasma ratio)): 0.3
concentration at 2 h ([2]; Study 4D, Cenobamate 30 mg/kg single oral dose, CF-1 mice, read-out: Mean Brain): 71.3 µM
concentration at 2 h ([2]; Study 4D, Cenobamate 30 mg/kg single oral dose, CF-1 mice, read-out: Mean Plasma): 237 µM
Mean Brain, Cenobamate ([2]; Study 4F, Cenobamate 5 mg/kg PO (2 h) in combination with Compound A 2 mg/kg PO (0.5 h)): 14.7 µM
Mean Brain, Cenobamate ([2]; Study 4G, Cenobamate 5 mg/kg PO (2 h) in combination with Compound A 0.5 mg/kg PO (0.5 h)): 18.1 µM
Mean Brain, Cenobamate ([2]; Study 4G, Cenobamate 5 mg/kg PO (2 h) in combination with Compound A 1 mg/kg PO (0.5 h)): 17.0 µM

From patent US20220288057A1, “CONJOINT THERAPY FOR TREATING SEIZURE DISORDERS” (XENON PHARMACEUTICALS INC., priority 2021, published 2022)
